In patent US20120196899A1, “METHODS AND PRODUCTS FOR TREATING INFLAMMATION” (Rock Creek Pharmaceuticals, Inc., priority 2010, published 2012):
Several values for one entry are separate records, joined by “and”; a condition that tells them apart may be missing. Equal entries are not always repeated. Entries after “also recorded” stand apart in the source; their conditions may differ.

Experiments:
[1] = Necropsy observations and organ weights, day 15; type: in vivo, Sprague-Dawley rats; details: for Organ Weight Brain, Mean / Organ Weight Heart, Mean / Organ Weight Kidneys, Mean / Organ Weight Liver, Mean / Organ Weight Lungs, Mean / Organ Weight Prostate, Mean / Organ Weight Small intestine, Mean / Organ Weight Spleen, Mean / Organ Weight Testes, Mean / Organ Weight Thymus, Mean: male rats; for Organ Weight Brain / Organ Weight Heart / Organ Weight Kidneys / Organ Weight Liver / Organ Weight Lungs / Organ Weight Ovaries/uterus / Organ Weight Small intestine / Organ Weight Spleen / Organ Weight Thymus: female animals, group mean
Experimental: Body weight and food consumption was measured daily for 14 days. On day 15, urine was collected on all surviving animals. The animals were euthanized and bled via cardiac puncture, and blood was collected for analysis. Tissues were collected, weighed, evaluated for gross abnormalities, and stored in 10% neutral-buffered formalin.
(§1) On day 15, urine was collected on all surviving animals for urinalysis. The animals were euthanized and bled via cardiac puncture. Blood was collected for hematology, clinical chemistry, and coagulation analysis. Tissues were collected, weighed, and stored in 10% neutral-buffered formalin for possible future analysis.

[2] = Urinalysis, day 15; type: in vivo, Sprague-Dawley rats
Description: as §1
There were no notable differences between the active treatment groups and controls and the observations are all consistent with those expected for this species.

[3] = Group C, 0.75 mg/kg, females, individual animals, 0.75 mg/kg
[4] = Group C, 0.75 mg/kg, males, individual animals, 0.75 mg/kg
[5] = anatabine 0.1 mg/kg single i.v.
[6] = anatabine 0.75 mg/kg single i.v.
[7] = Anatabine dose 0.1 mg/kg, individual animals B1-B10 (M and F)
[8] = Anatabine dose 0.1 mg/kg, individual animals B1-B10 (M and F), 0.1 mg/kg
[9] = Anatabine dose 0.75 mg/kg, individual animals C1-C10 (M and F)
[10] = Anatabine dose 0.75 mg/kg, individual animals C1-C10 (M and F), 0.75 mg/kg

## C1=CCC(c2cccnc2)NC1 (racemic) [Anatabine, 1,2,3,6-tetrahydro-[2,3′]bipyridinyl]
[1]; [3]
  Tissue Collection Weights: Ovaries/uterus: 0.81 g and 1.50 g and 0.72 g and 1.23 g and 3.65 g
  Tissue Collection Weights: Small intestine: 0.72 g and 0.37 g and 0.85 g and 0.47 g and 1.34 g
  Tissue Collection Weights: Spleen: 0.70 g and 0.65 g (2×) and 0.51 g and 0.49 g
  Tissue Collection Weights: Thymus: 0.56 g and 0.53 g and 0.63 g and 0.52 g and 0.54 g
[1]; [4]
  Tissue Collection Weights: Brain: 2.01 g and 2.19 g and 2.12 g and 2.00 g and 2.02 g
  Tissue Collection Weights: Heart: 1.52 g and 1.38 g and 1.56 g and 1.39 g and 1.29 g
  Tissue Collection Weights: Kidneys: 3.45 g and 2.77 g and 3.49 g and 3.16 g and 2.89 g
  Tissue Collection Weights: Liver: 14.92 g and 13.91 g and 14.70 g and 14.01 g and 14.94 g
  Tissue Collection Weights: Lungs: 1.86 g and 1.97 g and 1.72 g and 1.95 g and 1.58 g
  Tissue Collection Weights: Prostate: 0.49 g (2×) and 0.65 g and 0.46 g and 0.45 g
  Tissue Collection Weights: Small intestine: 0.54 g and 1.41 g and 0.56 g and 0.41 g and 0.47 g
  Tissue Collection Weights: Spleen: 0.71 g and 0.63 g and 0.79 g and 0.93 g and 0.64 g
  Tissue Collection Weights: Testes: 3.19 g and 3.84 g and 3.03 g and 3.28 g and 2.70 g
  Tissue Collection Weights: Thymus: 1.02 g and 0.52 g and 0.67 g and 0.69 g and 0.47 g
[1]; [5]
  Organ Weight Brain, Mean: 2.15 g
  Organ Weight Heart, Mean: 1.74 g
  Organ Weight Kidneys, Mean: 3.57 g
  Organ Weight Liver, Mean: 16.81 g
  Organ Weight Lungs, Mean: 1.98 g
  Organ Weight Prostate, Mean: 0.59 g
  Organ Weight Small intestine, Mean: 0.66 g
  Organ Weight Spleen, Mean: 0.82 g
  Organ Weight Testes, Mean: 3.42 g
  Organ Weight Thymus, Mean: 0.75 g
[1]; [6]
  Organ Weight Brain, Mean: 2.07 g
  Organ Weight Heart, Mean: 1.43 g
  Organ Weight Kidneys, Mean: 3.15 g
  Organ Weight Liver, Mean: 14.50 g
  Organ Weight Lungs, Mean: 1.82 g
  Organ Weight Prostate, Mean: 0.51 g
  Organ Weight Small intestine, Mean: 0.68 g
  Organ Weight Spleen, Mean: 0.74 g
  Organ Weight Testes, Mean: 3.21 g
  Organ Weight Thymus, Mean: 0.67 g
[1]; 0.1 mg/kg
  Organ Weight Brain: 1.86 g
  Organ Weight Heart: 1.13 g
  Organ Weight Kidneys: 2.18 g
  Organ Weight Liver: 10.84 g
  Organ Weight Lungs: 1.41 g
  Organ Weight Ovaries/uterus: 1.14 g
  Organ Weight Small intestine: 0.65 g
  Organ Weight Spleen: 0.65 g
  Organ Weight Thymus: 0.64 g
[1]; 0.75 mg/kg
  Organ Weight Brain: 1.90 g
  Organ Weight Heart: 1.11 g
  Organ Weight Kidneys: 2.30 g
  Organ Weight Liver: 10.42 g
  Organ Weight Lungs: 1.45 g
  Organ Weight Ovaries/uterus: 1.58 g
  Organ Weight Small intestine: 0.75 g
  Organ Weight Spleen: 0.60 g
  Organ Weight Thymus: 0.56 g
[2]; Anatabine dose 0.1 mg/kg, animal B9 (F), unit not given
  Urinalysis VOLUME: 0.5
[2]; [7]
  Urinalysis CLARITY: HAZY
  Urinalysis COLOR: YELLOW
  Urinalysis GLUCOSE: NEGATIVE
  Urinalysis UROBILINOGEN: NORMAL
  Urinalysis VOLUME: <0.5 mL
[2]; [8]
  Urinalysis BILIRUBIN: NEGATIVE
  Urinalysis BLOOD: TRACE; also recorded: NEGA-
  Urinalysis KETONES: NEGATIVE
  Urinalysis PROTEIN: TRACE; also recorded: NEGA-
  Urinalysis SPEC GRAVITY: 1.027 (2×) and 1.039 (2×) and 1.048 and 1.036 and 1.045 and 1.017
  Urinalysis pH: 8.5 and 7.5 (4×) and 7 (2×) and 8
[2]; [9]
  Urinalysis CLARITY: HAZY
  Urinalysis COLOR: YELLOW
  Urinalysis GLUCOSE: NEGATIVE
  Urinalysis UROBILINOGEN: NORMAL
[2]; [10]
  Urinalysis BILIRUBIN: NEGATIVE
  Urinalysis BLOOD: TRACE; also recorded: NEGA-
  Urinalysis KETONES: NEGATIVE
  Urinalysis PROTEIN: TRACE
  Urinalysis SPEC GRAVITY: 1.05 and 1.051 and 1.043 and 1.049 and 1.016 and 1.039 and 1.036 and 1.014
  Urinalysis VOLUME: <0.5 mL (8×) and <0.25 mL
  Urinalysis pH: 7 (3×) and 8 (3×) and 7.5 and 6
